Results on two compounds are retold here after patent publication US11931424B2, “Combination MCL-1 inhibitors with anti-body drug conjugates” (Gilead Sciences, Inc., priority 2021, dated 2024).

What all share (assay type): cell-based
Assay [1] has as its system HCC1187 (TNBC). The experiment in a line: Compound A + SN-38 cell viability combination assay (Cell Titer Glo, Bliss synergy). The note with it: HCC1187, 1st Replicate (n = 5), 72 hours; SN-38 0.0000 μM; Compound A μM = c0 of the row. From the text: (§1) Cells were passaged according to ATCC guidelines with 0.25% Trypsin/EDTA (1× GIBCO-25200).
(§2) Calculated values were compared to experimental results generated in the sixty-three-concentration checkerboard. Synergy or antagonism scores were generated depending on whether the observed growth inhibition was greater than or less than the calculated values, respectively.
(§3) Data for combination assays is presented in three formats.
(In general: Cellular ATP, detected with luciferase, serves as a proxy for viable cell number.)

The test system of assay [2] is HCC1806. Kind of assay: Compound A + paclitaxel cell viability combination assay (Cell Titer Glo, Bliss synergy). The conditions noted are these: Homo sapiens, read-out: Percent Inhibition. The protocol:
as §1
Viability assessments were performed using Cell Titer Glo™ (Promega #G9241) according to manufactures microwell plate protocol and read for luminescence on Synergy Neo2 plate reader.
For synergy matrix assays, TNBC cell lines were seeded 10,000 cells per well in clear-bottomed white 96-well plates (Corning #3909) in 100 μL of recommended cell culture medium. Plates were incubated at 37° C. and 100% RH for 20 hours prior to compound exposure.
Cells were then exposed to compound A with the same checkerboard matrix using D300 dispenser and incubated for 48 hours prior to measurement of viability by Cell Titer Glo.
as §2
These differences were summed up across the whole checker-board (sixty-three wells) to give cumulative synergy and antagonism scores with units of μM^2% to reflect the 2D surface of the dose responses.
as §3

Assay [3] deals with panel of breast cancer cell lines. The experiment in a line: Compound A with targeted agents and chemotherapies, 72-hour in vitro proliferation assays.

Turning to `COc1nn(C)cc1C(=O)N[S@@]1(=O)=NC(=O)c2ccc3c(c2)N(C[C@@H]2CC[C@H]2[C@@H](OC)/C=C/C[C@H](C)C1)C[C@@]1(CCCc2cc(Cl)ccc21)CO3` [Compound A, N-[(4S,7aR,9aR,10S,11E,14S)-6′-chloro-10-methoxy-14-methyl-16-oxido-18-oxo-3′,4′,7,7a,8,9,9a,10,13,14,15,18-dodecahydro-2′H-spiro[1,19-(ethanediylidene)-16λ^4-cyclobuta[i][1,4]oxazepino[3,4-f][1,2,7]thiadiazacyclohexadecine-4,1′-naphthalen]-16-yl]-3-methoxy-1-methyl-1H-pyrazole-4-carboxamide], in assay [1], the “Percent Inhibition” value worked out at 99.2%.
For `CC(=O)O[C@H]1C(=O)[C@@]2(C)[C@H]([C@H](OC(=O)c3ccccc3)[C@]3(O)C[C@H](OC(=O)[C@H](O)[C@@H](NC(=O)c4ccccc4)c4ccccc4)C(C)=C1C3(C)C)[C@]1(OC(C)=O)CO[C@@H]1C[C@@H]2O` [Paclitaxel, reference compound], the inhibition at 0.0005 µM in assay [2] was 2.3%. Also, the inhibition at 1 µM in assay [2] came out at 64.8%. Besides, the inhibition at 3 µM in assay [2] worked out at 69.9%. Besides, the “Best CI” value in assay [3] (72 h) worked out at 0.32; in assay [3] (AU565 cell line, compound A × partner, 72-hour proliferation) it was 0.19; in assay [3] (BT-20 cell line, compound A × partner, 72-hour proliferation) it was 0.05; in assay [3] (BT-474 cell line, compound A × partner, 72-hour proliferation), 0.16; in assay [3] (BT-549 cell line, compound A × partner, 72-hour proliferation) it was 0.27; in assay [3] (CAL-51 cell line, compound A × partner, 72-hour proliferation) it was 0.50. The “Best CI” value stood at 0.23 in assay [3] (CAL-85-1 cell line, compound A × partner, 72-hour proliferation); 0.25 in assay [3] (CAL-148 cell line, compound A × partner, 72-hour proliferation); 0.05 in assay [3] (CAMA-1 cell line, compound A × partner, 72-hour proliferation); 0.57 in assay [3] (DU-4475 cell line, compound A × partner, 72-hour proliferation); 0.26 in assay [3] (EVSA-T cell line, compound A × partner, 72-hour proliferation); 0.21 in assay [3] (HCC38, compound A × partner, 72-hour proliferation). For the same compound, the “Best CI” value in assay [3] (HCC70, compound A × partner, 72-hour proliferation) came out at 0.14; in assay [3] (HCC1143, compound A × partner, 72-hour proliferation), 0.35; in assay [3] (HCC1569, compound A × partner, 72-hour proliferation) it was 0.41; in assay [3] (HCC1806, compound A × partner, 72-hour proliferation), 0.10; in assay [3] (HCC1937, compound A × partner, 72-hour proliferation) it was 0.18; in assay [3] (HCC1954, compound A × partner, 72-hour proliferation) it was 0.05. In addition, the “Best CI” value in assay [3] (HCC2218, compound A × partner, 72-hour proliferation) came to 0.55; in assay [3] (HDQ-P1, compound A × partner, 72-hour proliferation), 0.82; in assay [3] (HMC-1-8, compound A × partner, 72-hour proliferation), 0.11; in assay [3] (JIMT-1, compound A × partner, 72-hour proliferation), 0.50; in assay [3] (MCF7 cells, Compound A × partner agent, 72-hour proliferation), 0.32; in assay [3] (MDA-MB-175-VII cells, Compound A × partner agent, 72-hour proliferation), 0.13. Moreover, the “Best CI” value in assay [3] (MDA-MB-231 cells, Compound A × partner agent, 72-hour proliferation) is 0.33; in assay [3] (MDA-MB-361 cells, Compound A × partner agent, 72-hour proliferation) it was 0.50; in assay [3] (MDA-MB-436 cells, Compound A × partner agent, 72-hour proliferation), 0.68; in assay [3] (MDA-MB-453 cells, Compound A × partner agent, 72-hour proliferation) it was 0.07; in assay [3] (MDA-MB-468 cells, Compound A × partner agent, 72-hour proliferation) it was 0.27; in assay [3] (SK-BR-3 cells, combination of compound A with the named agent, 72-hour proliferation), 0.70. Besides, the “Best CI” value in assay [3] (SUM159PT cells, combination of compound A with the named agent, 72-hour proliferation) was 0.06; in assay [3] (T47D cells, combination of compound A with the named agent, 72-hour proliferation), 0.08; in assay [3] (ZR-75-1 cells, combination of compound A with the named agent, 72-hour proliferation), 0.07; in assay [3] (ZR-75-30 cells, combination of compound A with the named agent, 72-hour proliferation), 0.41.

One may read the inhibition as the change of the read-out against control, counted positive when it falls.
